Test results reported in patent publication US20220324817A1, “QUINAZOLINE PRODRUGS FOR THE TREATMENT OF VIRAL INFECTIONS AND FURTHER DISEASES” (Janssen Sciences Ireland Unlimited Company, priority 2019, published 2022).

What was measured:
Format in all cases: in vitro ADME
[1] = Intrinsic clearance in human liver microsomes; conditions: 37° C., 1 μM compound, 1 mg/mL microsomal protein
Experimental: (§1) Intrinsic clearance (CLint). CLint was determined in rat and human liver microsomes. Incubations were performed at 37° C., at a concentration of 1 μM of compound, and a microsomal protein concentration of 1 mg/mL. Serial samples were removed at intervals of up to 60 min and analyzed for the concentration of compound to determine its intrinsic clearance rate. Compound was incubated in rat and human hepatocytes (10^6 cells/mL) at 1 μM for 0, 10, 20, 40, 60 and 120 min. Serial samples were removed at intervals of up to 120 min and analyzed for the concentration of compound to determine its intrinsic clearance rate. Permeability and Efflux in vitro. The in vitro permeability and potential to be transported by P-glycoprotein (P-gp) was determined using an MDCK cell line transfected with human MDR1 (P-glycoprotein). […] Permeability in the A→B direction in absence and presence of GF120918 and in the B→A direction in absence of GF120918 was measured by monitoring the appearance of the test compound on the opposite side of the membrane using a specific LC-MS/MS method. The efflux ratio (B→*A-GF120918/A→B-GF120918) was calculated to determine whether the test compound was a P-gp substrate. […] Plasma stability is measured in rat and human plasma for 7 or 24 h at 37° C. […] Samples were analyzed by LC-MS/MS (without internal standard). […] Half-life (t1/2 in hours) is calculated from those data. […]

[2] = test system: P-glycoprotein (human MDR1); assay: Permeability and efflux in vitro in MDCK-MDR1 cell line; conditions: dog, MDCK-MDR1 cells, in absence of GF120918
Experimental: as §1

[3] = Intrinsic clearance in rat liver microsomes; conditions: 37° C., 1 μM compound, 1 mg/mL microsomal protein
Experimental: as §1

| microsomal CLint at 1 μM [1] | Papp A→B [2] | efflux ratio ([2]; read-out: Efflux ratio B -> A/A -> B) | microsomal CLint at 1 μM [3] | SMILES |
| --- | --- | --- | --- | --- |
| 47 µL/min/mg | 82.2 nm/s | 4.5 | 109 µL/min/mg | CCCC[C@H](CO)Nc1nc(NC(=O)OCC)nc2c(C)cccc12 [Compound 1, ethyl (R)-(4-((1-hydroxyhexan-2-yl)amino)-8-methylquinazolin-2-yl)carbamate] |
| – | – | – | 84 µL/min/mg | CCCC[C@H](COC(=O)C(C)C)Nc1nc(NC(=O)C(C)C)nc2c(C)cccc12 [Compound 2, (R)-2-((2-isobutyramido-8-methylquinazolin-4-yl)amino)hexyl isobutyrate] |
